# Measurements as given in patent publication US10407409B2, “6-(5-hydroxy-1H-pyrazol-1-yl)nicotinamide inhibitors of PHD” (Takeda Pharmaceutical Company Limited, priority 2013, dated 2019).
# Where a name gives a salt, the structure may show the parent alone.
# Assays:
# [1] = molecular target: PHD2 enzyme (residues 181-417) (Homo sapiens (Human), UniProt Q9GZT9); test: Inhibition of PHD enzyme (LC/MS peptide hydroxylation assay); assay type: biochemical; conditions: PHD2 (residues 181-417) 5 nM, 60 min pre-incubation; -log(IC50), IC50 molar
# Sequence of PHD2 enzyme (residues 181-417) (Q9GZT9 181-417): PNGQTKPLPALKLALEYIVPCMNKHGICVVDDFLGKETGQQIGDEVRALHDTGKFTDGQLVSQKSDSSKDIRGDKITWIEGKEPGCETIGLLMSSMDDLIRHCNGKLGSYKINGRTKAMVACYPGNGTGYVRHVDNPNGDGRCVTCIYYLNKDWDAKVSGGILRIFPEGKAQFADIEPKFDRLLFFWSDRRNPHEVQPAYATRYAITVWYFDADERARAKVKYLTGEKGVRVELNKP
# Description: Example A Inhibition of PHD Enzyme
# The IC50 values for the PHD2 enzyme (residues 181-417) were determined by mixing increasing amounts of inhibitor with a fixed amount of enzyme (5 nM, final concentration) and Biotin labeled peptide (Biotin-Asp-Leu-Glu-Met-Leu-Ala-Pro-Tyr-Ile-Pro-Met-Asp-Asp-Asp-Phe-Gln-Leu, 1 uM final concentration) and 2-Oxyglutarate (2 uM final concentration) in 50 mM HEPES, 50 mM KCl, 0.5 mM TCEP, 2 uM FeCl2, 0.1 mg/ml BSA, at pH 7.3. The reaction was conducted by pre-incubating the enzyme in the presence of inhibitor for 60 min at room temperature. The activity of the free enzyme was measured by adding the peptide, the 2-Oxoglutarate (see above for final concentrations), and Ascorbic Acid (1 mM final concentration). The enzymatic activity was quenched after 60 min by adding an excess of a tight binding inhibitor to the assay mixture. The amount of product released was measured by using a LC/MS system (Agilent HPLC with Applied Biosystems API3000 Mass Spectrometer). Data were analyzed using the classical isotherm equation for the determination of IC50 values and are pIC50, i.e., −log(IC50), where IC50 is molar concentration and are reported as pIC50, i.e., −log(IC50), where IC50 is molar concentration.
# [2] = test system: HIF1a protein in H9c2 rat cardiomyocytes; test: Cell-based HIF-alpha stabilization assay (inhibition of PHD in cells); conditions: 24 hrs compound incubation, HIF1a protein by ELISA; for EC50: Rattus norvegicus, H9c2, 24 h, read-out: Inhibition of PHD in cells (pEC50) (converted)
# Description: Example B Inhibition of PHD in Cells
# PHD Inhibition is Determined Using (Secondary Assay)
# Cell-Based HIF-Alpha Stabilization Assay:
# H9c2 rat cardiomyocytes (ATCC) were seeded in 96-well tissue culture microplates and cultured for 24 hours prior to addition of compounds (11 point range of serial dilutions) or dimethylsulfoxide vehicle. After 24 hrs of compound incubation, whole cell extracts were prepared by lysing cells in cell extraction buffer containing protease and phosphatase inhibitors (Meso-Scale Discovery). HIF1a protein content was assessed by ELISA (Meso-Scale Discovery) and expressed as a % relative to the maximum response obtained from the positive control, desferrioxamine (Sigma-Aldrich). Compound EC50s were obtained by curve-fitting using XLfit4 MicroSoft Excel curve-fitting software. Compound EC50pos were obtained using XLfit4 to calculate the compound concentration that results in 50% of the desferrioxamine maximum response.
Compound,PHD Inhibition (pIC50) [1],EC50 [2],also measured
"COc1cc(-c2cnn(-c3ccc(C(=O)NCCCN(C)C)cn3)c2O)ccn1 [Example 44, N-(3-(dimethylamino)propyl)-6-(5-hydroxy-4-(2-methoxypyridin-4-yl)-1H-pyrazol-1-yl)nicotinamide]",7.3,,
"COc1cc(-c2cnn(-c3ccc(C(=O)NCCCN4CCCCC4C)cn3)c2O)ccn1 (stereo not drawn) [Example 29, 6-(5-hydroxy-4-(2-methoxypyridin-4-yl)-1H-pyrazol-1-yl)-N-(3-(2-methylpiperidin-1-yl)propyl)nicotinamide]",,871 nM,
"COCCCN(C)C(=O)c1ccc(-n2ncc(-c3ccc(C#N)cc3OC)c2O)nc1 [Example 240, 6-(4-(4-cyano-2-methoxyphenyl)-5-hydroxy-1H-pyrazol-1-yl)-N-(3-methoxypropyl)-N-methylnicotinamide]",6.63,,
"COCCNC(=O)c1cnc(-n2ncc(-c3ccc(C#N)cc3)c2O)cc1C [Example 276, 6-(4-(4-cyanophenyl)-5-hydroxy-1H-pyrazol-1-yl)-N-(2-methoxyethyl)-4-methylnicotinamide]",,3630 nM,
"COc1ccc2c(c1)C(NC(=O)c1ccc(-n3ncc(-c4ccc(C#N)cc4)c3O)nc1)CC2 (stereo not drawn) [Example 83, 6-(4-(4-cyanophenyl)-5-hydroxy-1H-pyrazol-1-yl)-N-(6-methoxy-2,3-dihydro-1H-inden-1-yl)nicotinamide]",,1780 nM,
"COc1cc(-c2cnn(-c3ccc(C(=O)NCCCN4CCCC4)cn3)c2O)ccn1 [Example 19, 6-(5-hydroxy-4-(2-methoxypyridin-4-yl)-1H-pyrazol-1-yl)-N-(3-(pyrrolidin-1-yl)propyl)nicotinamide]",,1380 nM,
"COc1cc(-c2cnn(-c3ccc(C(=O)NCCCN4CCCCC4)cn3)c2O)ccn1 [Example 18, 6-(5-hydroxy-4-(2-methoxypyridin-4-yl)-1H-pyrazol-1-yl)-N-(3-(piperidin-1-yl)propyl)nicotinamide]",,933 nM,
"COCC1(NC(=O)c2ccc(-n3ncc(-c4ccc(C#N)cc4C)c3O)nc2)CC1 [Example 118A, 6-(4-(4-cyano-2-methylphenyl)-5-hydroxy-1H-pyrazol-1-yl)-N-(1-(methoxymethyl)cyclopropyl)nicotinamide]",,79.4 nM,
"CCCN1CCN(C(=O)c2ccc(-n3ncc(-c4ccc(C#N)cc4C)c3O)nc2)C[C@@H]1C [Example 374, (S)-4-(5-hydroxy-1-(5-(3-methyl-4-propylpiperazine-1-carbonyl)pyridin-2-yl)-1H-pyrazol-4-yl)-3-methylbenzonitrile]",,100 nM,
"COc1cc(-c2cnn(-c3ccc(C(=O)NCCC4CCOCC4)cn3)c2O)ccn1 [Example 11, 6-(5-hydroxy-4-(2-methoxypyridin-4-yl)-1H-pyrazol-1-yl)-N-(2-(tetrahydro-2H-pyran-4-yl)ethyl)nicotinamide]",,537 nM,
"COc1cc(-c2cnn(-c3ccc(C(=O)NCCCn4ccnc4)cn3)c2O)ccn1 [Example 21, N-(3-(1H-imidazol-1-yl)propyl)-6-(5-hydroxy-4-(2-methoxypyridin-4-yl)-1H-pyrazol-1-yl)nicotinamide]",,,Inhibition of PHD in cells (pEC50) [2]: 6.46
"CCCN1CCCN(C(=O)c2ccc(-n3ncc(-c4ccc(C#N)cc4C)c3O)nc2)CC1 [Example 424, 4-(5-hydroxy-1-(5-(4-propyl-1,4-diazepane-1-carbonyl)pyridin-2-yl)-1H-pyrazol-4-yl)-3-methylbenzonitrile]",7.70,,
"C[C@@H](NC(=O)c1ccc(-n2ncc(-c3ccc(C#N)cc3)c2O)nc1)C1CC1 [Example 88, (R)-6-(4-(4-cyanophenyl)-5-hydroxy-1H-pyrazol-1-yl)-N-(1-cyclopropylethyl)nicotinamide]",,,Inhibition of PHD in cells (pEC50) [2]: 5.50
"Cc1cc(C#N)ccc1-c1cnn(-c2ccc(C(=O)N3CCN(C)C[C@@H]3C)cn2)c1O [Example 391, (S)-4-(1-(5-(2,4-dimethylpiperazine-1-carbonyl)pyridin-2-yl)-5-hydroxy-1H-pyrazol-4-yl)-3-methylbenzonitrile]",,1550 nM,
"CNCCCNC(=O)c1ccc(-n2ncc(-c3ccc(C#N)cc3)c2O)nc1 [Example 272, 6-(4-(4-cyanophenyl)-5-hydroxy-1H-pyrazol-1-yl)-N-(3-(methylamino)propyl)nicotinamide hydrochloride]",7.03,,
"COc1cc(-c2cnn(-c3ccc(C(=O)NCCC4CCCN4C)cn3)c2O)ccn1 (stereo not drawn) [Example 23, 6-(5-hydroxy-4-(2-methoxypyridin-4-yl)-1H-pyrazol-1-yl)-N-(2-(1-methylpyrrolidin-2-yl)ethyl)nicotinamide]",,1000 nM,
"CN1CCC(NC(=O)c2ccc(-n3ncc(-c4ccc(C#N)cc4)c3O)nc2)CC1=O (stereo not drawn) [Example 82, 6-(4-(4-cyanophenyl)-5-hydroxy-1H-pyrazol-1-yl)-N-(1-methyl-2-oxopiperidin-4-yl)nicotinamide]",,4790 nM,
"COc1cc(-c2cnn(-c3ccc(C(=O)NCCCCO)cn3)c2O)ccn1 [Example 28, 6-(5-hydroxy-4-(2-methoxypyridin-4-yl)-1H-pyrazol-1-yl)-N-(4-hydroxybutyl)nicotinamide]",7.01,,

# Second part, led by results:
PHD Inhibition (pIC50) [1],Compound,EC50 [2],also measured
8.3,"COCCC1(NC(=O)c2ccc(-n3ncc(-c4ccc(C#N)cc4F)c3O)nc2)CC1 [Example 210, 6-(4-(4-cyano-2-fluorophenyl)-5-hydroxy-1H-pyrazol-1-yl)-N-(1-(2-methoxyethyl)cyclopropyl)nicotinamide]",,
6.6,"O=C(NCC1CCOCC1)c1ccc(-n2ncc(-c3ccncc3)c2O)nc1 [Example 226, 6-(5-hydroxy-4-(pyridin-4-yl)-1H-pyrazol-1-yl)-N-((tetrahydro-2H-pyran-4-yl)methyl)nicotinamide]",,
6.21,"CN(C)c1cc(-c2cnn(-c3ccc(C(=O)NCC4CCOCC4)cn3)c2O)ccn1 [Example 212, 6-(4-(2-(dimethylamino)pyridin-4-yl)-5-hydroxy-1H-pyrazol-1-yl)-N-((tetrahydro-2H-pyran-4-yl)methyl)nicotinamide]",,
8.23,"Cc1cc(C#N)ccc1-c1cnn(-c2ccc(C(=O)N3CCN4CCCC4C3)cn2)c1O (stereo not drawn) [Example 407, 4-(5-hydroxy-1-(5-(octahydropyrrolo[1,2-a]pyrazine-2-carbonyl)pyridin-2-yl)-1H-pyrazol-4-yl)-3-methylbenzonitrile]",,
6.99,"COc1cc(-c2cnn(-c3ccc(C(=O)NC(CO)C4CCOC4)cn3)c2O)ccn1 (stereo not drawn) [Example 27, N-(2-hydroxy-1-(tetrahydrofuran-3-yl)ethyl)-6-(5-hydroxy-4-(2-methoxypyridin-4-yl)-1H-pyrazol-1-yl)nicotinamide]",,
7.2,"N#Cc1ccc(-c2cnn(-c3ccc(C(=O)N[C@H]4CCNC4)cn3)c2O)cc1 [Example 73, (S)-6-(4-(4-cyanophenyl)-5-hydroxy-1H-pyrazol-1-yl)-N-(pyrrolidin-3-yl)nicotinamide]",,
5.83,"Cc1cc(-c2cnn(-c3ccc(C(=O)NCC4CCOCC4)cn3)c2O)cc(C)n1 [Example 224, 6-(4-(2,6-dimethylpyridin-4-yl)-5-hydroxy-1H-pyrazol-1-yl)-N-((tetrahydro-2H-pyran-4-yl)methyl)nicotinamide]",,
7.4,"CCN1CCC(NC(=O)c2ccc(-n3ncc(-c4ccnc(OC)c4)c3O)nc2)CC1 [Example 37, N-(1-ethylpiperidin-4-yl)-6-(5-hydroxy-4-(2-methoxypyridin-4-yl)-1H-pyrazol-1-yl)nicotinamide]",,
7.24,"CC1CC(CNC(=O)c2ccc(-n3ncc(-c4ccc(C#N)cc4)c3O)nc2)C1 (stereo not drawn) [Example 257, 6-(4-(4-cyanophenyl)-5-hydroxy-1H-pyrazol-1-yl)-N-((3-methylcyclobutyl)methyl)nicotinamide]",,
6.95,"CC1CCCCN1CCCNC(=O)c1ccc(-n2ncc(-c3ccc(C#N)cc3)c2O)nc1 (stereo not drawn) [Example 90, 6-(4-(4-cyanophenyl)-5-hydroxy-1H-pyrazol-1-yl)-N-(3-(2-methylpiperidin-1-yl)propyl)nicotinamide]",,
6.87,"CN1CCC(CNC(=O)c2ccc(-n3ncc(-c4ccc(C#N)cc4)c3O)nc2)C1 (stereo not drawn) [Example 92, 6-(4-(4-cyanophenyl)-5-hydroxy-1H-pyrazol-1-yl)-N-((1-methylpyrrolidin-3-yl)methyl)nicotinamide]",,
6.72,"N#Cc1ccc(-c2cnn(-c3ccc(C(=O)NCC4CCC4)cn3)c2O)cc1 [Example 256, 6-(4-(4-cyanophenyl)-5-hydroxy-1H-pyrazol-1-yl)-N-(cyclobutylmethyl)nicotinamide]",,
